Data from patent US11203591B2, “Substituted 6-azabenzimidazole compounds” (Gilead Sciences, Inc., priority 2018, dated 2021).

Target: human HPK1 (MAP4K1) (Homo sapiens (Human), UniProt Q92918)
Test: HPK1 IC50 Assay (TR-FRET peptide phosphorylation)
Type: biochemical
Settings: 0.15 nM HPK1, 10 μM ATP, 1 μM STK S1 peptide substrate; geometric mean
Outline: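 Readout: TR-FRET (665 nm/620 nm) after EDTA stop, detecting STK S1 peptide (1 μM) phosphorylation by 0.15 nM HPK1 kinase domain, ATP-pre-activated, at 10 μM ATP over 3 h, 25° C, pH 7.0. IC50s from four-parameter variable-slope fits, normalized to staurosporine and DMSO, averaged geometrically.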

Sequence of human HPK1 (MAP4K1) (Q92918 17-274): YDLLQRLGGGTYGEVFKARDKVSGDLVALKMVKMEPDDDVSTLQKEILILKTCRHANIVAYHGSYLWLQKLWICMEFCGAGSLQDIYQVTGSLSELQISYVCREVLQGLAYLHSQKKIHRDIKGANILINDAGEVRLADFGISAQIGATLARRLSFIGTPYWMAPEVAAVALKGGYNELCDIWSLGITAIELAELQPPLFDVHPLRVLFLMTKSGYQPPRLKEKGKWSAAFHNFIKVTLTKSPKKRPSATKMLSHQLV

| IC50 [nM] | SMILES |
| --- | --- |
| 0.07 | CNC(=O)c1cc(Nc2nc(-c3cnc4c(c3)N([C@H]3C[C@@](C)(N5CCCCC5)C3)C(=O)C4(C)C)cc3ncn(C(C)C)c23)c(F)c(F)c1Cl [Example 281, 2-chloro-5-((6-(3,3-dimethyl-1-((1s,3s)-3-methyl-3-(piperidin-1-yl)cyclobutyl)-2-oxo-2,3-dihydro-1H-pyrrolo[3,2-b]pyridin-6-yl)-3-isopropyl-3H-imidazo[4,5-c]pyridin-4-yl)amino)-3,4-difluoro-N-methylbenzamide] |
| 0.05 | CC(C)n1cnc2cc(-c3ccc4c(c3)N([C@H]3C[C@@](C)(N5CCCCC5)C3)C(=O)C4(C)C)nc(Nc3cc(C(=O)NC4(CF)CC4)c(Cl)cc3F)c21 [Example 293, 2-chloro-5-((6-(3,3-dimethyl-1-((1s,3s)-3-methyl-3-(piperidin-1-yl)cyclobutyl)-2-oxoindolin-6-yl)-3-isopropyl-3H-imidazo[4,5-c]pyridin-4-yl)amino)-4-fluoro-N-(1-(fluoromethyl)cyclopropyl)benzamide] |
| 0.06 | CC(C)n1cnc2cc(-c3ccc4c(c3)N([C@H]3C[C@@](C)(N5CCCCC5)C3)C(=O)C43CC3)nc(Nc3cc(C(=O)NCC(F)F)c(Cl)c(F)c3F)c21 [Example 275, 2-chloro-N-(2,2-difluoroethyl)-3,4-difluoro-5-((3-isopropyl-6-(1′-((1s,3s)-3-methyl-3-(piperidin-1-yl)cyclobutyl)-2′-oxospiro[cyclopropane-1,3′-indolin]-6′-yl)-3H-imidazo[4,5-c]pyridin-4-yl)amino)benzamide] |

Same assay, conditions: recombinant HPK1 kinase domain 0.15 nM, 10 μM ATP, 1 μM STK S1 peptide; geometric mean of multiple experiments

| SMILES | IC50 [nM] |
| --- | --- |
| Cc1cc(F)c(Nc2nc(-c3cnc4c(c3)N([C@H]3C[C@@](C)(N5CCCCC5)C3)CC4(C)C)cc3ncn(C(C)C)c23)cc1C(=O)NC1(C(F)F)CC1 [Example 219, N-(1-(Difluoromethyl)cyclopropyl)-5-((6-(3,3-dimethyl-1-((1s,3s)-3-methyl-3-(piperidin-1-yl)cyclobutyl)-2,3-dihydro-1H-pyrrolo[3,2-b]pyridin-6-yl)-3-isopropyl-3H-imidazo[4,5-c]pyridin-4-yl)amino)-4-fluoro-2-methylbenzamide] | 0.2 |
| Cc1ccc(Nc2nc(-c3ccc4c(c3)N([C@H]3C[C@@H](N5CCCCC5)C3)C(=O)C43CCOCC3)cc3ncn(C(C)C)c23)cc1C(=O)NC1CCC1 [Example 23] | 0.2 |
| CNC(=O)c1cc(Nc2nc(-c3ccc4c(c3)N([C@H]3C[C@@H](N5CCCCC5)C3)C(=O)C43CCN(C(C)=O)CC3)cc3ncn(C4CC4)c23)c(F)cc1Cl [Example 93] | 0.2 |
| Cc1cc(F)c(Nc2nc(-c3ccc4c(c3)N([C@H]3C[C@@H](N5CCC[C@@H](F)C5)C3)C(=O)C4(C)C)cc3ncn(C(C)C)c23)cc1C(=O)NC(C)C [Example 110] | 0.2 |
| Cc1c(C(=O)NC2(C(F)F)CC2)cc(Nc2nc(-c3cnc4c(c3)N(C3CC(C)(N5CCC6C[C@@H]6C5)C3)C(=O)C4(C)C)cc3ncn(C(C)C)c23)c(F)c1F (stereo partly drawn) [Example 233, 5-((6-(1-((1s,3s)-3-(3-azabicyclo[4.1.0]heptan-3-yl)-3-methylcyclobutyl)-3,3-dimethyl-2-oxo-2,3-dihydro-1H-pyrrolo[3,2-b]pyridin-6-yl)-3-isopropyl-3H-imidazo[4,5-c]pyridin-4-yl)amino)-N-(1-(difluoromethyl)cyclopropyl)-3,4-difluoro-2-methylbenzamide] | 0.08 |
| Cc1c(C(=O)NC2(C(F)F)CC2)cc(Nc2nc(-c3cnc4c(c3)N([C@H]3C[C@@](C)(N5CCOC6(CC6)C5)C3)C(=O)C4(C)C)cc3ncn(C(C)C)c23)c(F)c1F [Example 193, N-(1-(Difluoromethyl)cyclopropyl)-5-((6-(3,3-dimethyl-1-((1s,3s)-3-methyl-3-(4-oxa-7-azaspiro[2.5]octan-7-yl)cyclobutyl)-2-oxo-2,3-dihydro-1H-pyrrolo[3,2-b]pyridin-6-yl)-3-isopropyl-3H-imidazo[4,5-c]pyridin-4-yl)amino)-3,4-difluoro-2-methylbenzamide] | 0.2 |
| CC[C@@H](C)NC(=O)c1cc(Nc2nc(-c3ccc4c(c3)N([C@H]3C[C@@H](N5CCCCC5)C3)C(=O)C43CCN(C(C)=O)CC3)cc3ncn(C(C)C)c23)c(F)cc1C [Example 87] | 0.3 |
| CC(C)n1cnc2cc(-c3cnc4c(c3)N([C@H]3C[C@@](C)(N5CC6CC6C5)C3)C(=O)C4(C)C)nc(Nc3cc(C(=O)NC4(C(F)F)CC4)c(Cl)c(F)c3F)c21 (stereo partly drawn) [Example 234, 5-((6-(1-((1s,3s)-3-(3-Azabicyclo[3.1.0]hexan-3-yl)-3-methylcyclobutyl)-3,3-dimethyl-2-oxo-2,3-dihydro-1H-pyrrolo[3,2-b]pyridin-6-yl)-3-isopropyl-3H-imidazo[4,5-c]pyridin-4-yl)amino)-2-chloro-N-(1-(difluoromethyl)cyclopropyl)-3,4-difluorobenzamide] | 0.3 |
| CNC(=O)c1cc(Nc2nc(-c3ccc4c(c3)N([C@H]3C[C@@H](N5C6COCC5C6)C3)C(=O)C4(C)C)cc3ncn(C(C)C)c23)ccc1C [Example 6] | 0.1 |
| CC(=O)N1CCC2(CC1)C(=O)N([C@H]1C[C@@H](N3CCCCC3)C1)c1cc(-c3cc4ncn(C(C)C)c4c(Nc4cc(C(=O)NC(C)C)c(Cl)cc4F)n3)ccc12 [Example 89] | 0.2 |

Second part, the compound after the results:

| IC50 [nM] | SMILES |
| --- | --- |
| 0.07 | Cc1c(C(=O)NC2(C(F)F)CC2)cc(Nc2nc(-c3ccc4c(c3)N([C@H]3C[C@@](C)(N5CCCCC5)C3)C(=O)C4(C)C)cc3ncn(C(C)C)c23)c(F)c1F [Example 236, N-(1-(Difluoromethyl)cyclopropyl)-5-((6-(3,3-dimethyl-1-((1s,3s)-3-methyl-3-(piperidin-1-yl)cyclobutyl)-2-oxoindolin-6-yl)-3-isopropyl-3H-imidazo[4,5-c]pyridin-4-yl)amino)-3,4-difluoro-2-methylbenzamide] |
| 0.1 | Cc1ccc(Nc2nc(-c3ccc4c(c3)N([C@H]3C[C@@H](N5CCCCC5)C3)C(=O)C4(C)C)cc3ncn(C(C)C)c23)cc1C(=O)N[C@H](C)CF [Example 30] |
| 0.05 | CNC(=O)c1cc(Nc2nc(-c3ccc4c(c3)N([C@H]3C[C@@H](N5CCCCC5)C3)C(=O)C43CCN(C(=O)[C@@H](C)O)CC3)cc3ncn(C4CC4)c23)ccc1C [Example 151] |
| 0.1 | CCNC(=O)c1cc(Nc2nc(-c3cc4c(nc3F)C(C)(C)C(=O)N4[C@H]3C[C@@](C)(N4CCC5CC5C4)C3)cc3ncn(C(C)C)c23)c(F)c(F)c1C (stereo partly drawn) [Example 255, 5-((6-(1-((1s,3s)-3-(3-azabicyclo[4.1.0]heptan-3-yl)-3-methylcyclobutyl)-5-fluoro-3,3-dimethyl-2-oxo-2,3-dihydro-1H-pyrrolo[3,2-b]pyridin-6-yl)-3-isopropyl-3H-imidazo[4,5-c]pyridin-4-yl)amino)-N-ethyl-3,4-difluoro-2-methylbenzamide] |
| 0.07 | Cc1c(C(=O)NC2(C(F)F)CC2)cc(Nc2nc(-c3ccc4c(c3)N([C@H]3C[C@@H](N5C[C@H]6CC[C@@H]5C6)C3)C(=O)C4(C)C)cc3ncn(C(C)C)c23)c(F)c1F [Example 145, 5-((6-(1-((1S,3s)-3-((1R,4S)-2-azabicyclo[2.2.1]heptan-2-yl)cyclobutyl)-3,3-dimethyl-2-oxoindolin-6-yl)-3-isopropyl-3H-imidazo[4,5-c]pyridin-4-yl)amino)-N-(1-(difluoromethyl)cyclopropyl)-3,4-difluoro-2-methylbenzamide] |
| 0.1 | CC(C)n1cnc2cc(-c3cnc4c(c3)N([C@H]3C[C@@](C)(N5CCCCC5)C3)C(=O)C4(C)C)nc(Nc3cc(C(=O)NC4(CF)CC4)c(Cl)c(F)c3F)c21 [Example 211, 2-Chloro-5-((6-(3,3-dimethyl-1-((1s,3s)-3-methyl-3-(piperidin-1-yl)cyclobutyl)-2-oxo-2,3-dihydro-1H-pyrrolo[3,2-b]pyridin-6-yl)-3-isopropyl-3H-imidazo[4,5-c]pyridin-4-yl)amino)-3,4-difluoro-N-(1-(fluoromethyl)cyclopropyl)benzamide] |
| 0.07 | Cc1c(C(=O)NC2(C(F)F)CC2)cc(Nc2nc(-c3cc4c(nc3F)C(C)(C)C(=O)N4[C@H]3C[C@@](C)(N4CCCCC4)C3)cc3ncn(C(C)C)c23)c(F)c1F [Example 195, N-(1-(Difluoromethyl)cyclopropyl)-3,4-difluoro-5-((6-(5-fluoro-3,3-dimethyl-1-((1s,3s)-3-methyl-3-(piperidin-1-yl)cyclobutyl)-2-oxo-2,3-dihydro-1H-pyrrolo[3,2-b]pyridin-6-yl)-3-isopropyl-3H-imidazo[4,5-c]pyridin-4-yl)amino)-2-methylbenzamide] |
| 0.1 | CNC(=O)c1cc(Nc2nc(-c3ccc4c(c3)N([C@H]3C[C@@H](N5CCCCC5)C3)C(=O)C43CCN(C(=O)C4(C)COC4)CC3)cc3ncn(C4CC4)c23)ccc1C [Example 85] |
| 0.01 | CC(C)n1cnc2cc(-c3cnc4c(c3)N([C@H]3C[C@@](C)(N5CCCOCC5)C3)C(=O)C4(C)C)nc(Nc3cc(C(=O)NC4(C(F)F)CC4)c(Cl)c(F)c3F)c21 [Example 198, 2-Chloro-N-(1-(difluoromethyl)cyclopropyl)-5-((6-(3,3-dimethyl-1-((1s,3s)-3-methyl-3-(1,4-oxazepan-4-yl)cyclobutyl)-2-oxo-2,3-dihydro-1H-pyrrolo[3,2-b]pyridin-6-yl)-3-isopropyl-3H-imidazo[4,5-c]pyridin-4-yl)amino)-3,4-difluorobenzamide] |
| 0.1 | CNC(=O)c1cc(Nc2nc(-c3ccc4c(c3)N([C@H]3C[C@@H](N5CCCCC5)C3)C(=O)C43CCN(S(C)(=O)=O)CC3)cc3ncn(C4CC4)c23)ccc1C [Example 168] |
| 0.1 | Cc1cc(F)c(Nc2nc(-c3ccc4c(c3)N([C@H]3C[C@@H](N5CCCCC5)C3)C(=O)C4(C)C)cc3ncn(C(C)C)c23)cc1C(=O)NC1(C(F)F)CC1 [Example 65] |
